Reference: patent US4150137A, “Pyridylalkyl esters of 2-(p-isobutylphenyl)acetic acid and propionic acids and use” (Hisamitsu Pharmaceutical Co. Inc., priority 1975, dated 1979)

How the values were obtained:
[1] = system: writhing syndrome; assay: Analgetic activity (acetic acid writhing syndrome); format: in vivo, mouse (dd-strain); conditions: Mus musculus, 1 h; oral, mice, 0.6% acetic acid i.p. one hour later; Litchfield-Wilcoxon; read-out: analgetic effect ED50 (95% C.L.)
Protocol: Each test compound suspended in 0.5% tragacanth-saline was orally administered to dd-strain mice(body weight: 18-20 g). After one hour 0.6% acetic acid solution was injected intraperitoneally in a volume of 0.1 ml/10 g.

[2] = system: carrageenin-induced leakage of the pigment, dorsal skin; assay: Anti-inflammatory activity for topical route (carrageenin, leakage of pigment in dorsal skin); format: in vivo, rat (Wistar-strain); conditions: for anti-inflammatory effect, topical (relative inhibition, ibuprofen = 1.0): 1% in polyethylene glycol 300, percent inhibition divided by that of ibuprofen
Protocol: The dorsal skin of male rats of Wistar-strain(body weight: about 100 g) were depilated. Carrageenin suspension was injected intra-dermally at a dose of 250 γ/0.05 ml/site. […] Immediately after injection, the filter paper containing 125.2±18.0 mg of the polyethylene glycol was applied on the injected site. After 3 hours, 1% pontamine sky blue solution was injected intravenously at a dose of 0.5 ml/kg. After further 3 hours, the animals were sacrificed and their dorsal skin were removed to measure the area of leakage of the pigment. The percent inhibition was determined with respect to the results for the control animals.

[3] = system: carrageenin edema; assay: Anti-inflammatory activity for oral route (carrageenin edema, hind paw); format: in vivo, rat (Wistar-strain); conditions: for anti-inflammatory effect, oral, 10 mg/kg (relative inhibition, ibuprofen = 1.0): 10 mg/kg oral; for anti-inflammatory effect, oral, 10 mg/kg (relative inhibition, ibuprofen = 1.0) / anti-inflammatory effect, oral, 50 mg/kg (relative inhibition, ibuprofen = 1.0): percent inhibition divided by that of ibuprofen, carrageenin edema after 3 hours; for anti-inflammatory effect, oral, 50 mg/kg (relative inhibition, ibuprofen = 1.0): 50 mg/kg oral; for mean percent inhibition (carrageenin edema): oral
Protocol: After 30 minutes 0.5-1.0% carrageenin suspended in the water for injection was injected subcutaneously to a hind paw. After 3 hours the carrageenin edema was measured by volume, and the percent inhibition was determined with respect to the results for the control animals.

[4] = system: male mice of dd-strain; format: in vivo; conditions: death of animals 72 hours following administration
Protocol: Each test compound suspended in 0.5% tragacanth-saline was administered intraperitoneally or orally to male mice of dd-strain(body weight 16-24 g). The lethal dose was estimated from the death of animals 72 hours following administration.

Compound	ED50 [1]	anti-inflammatory effect, topical (relative inhibition, ibuprofen = 1.0) [2]	anti-inflammatory effect, oral, 10 mg/kg (relative inhibition, ibuprofen = 1.0) [3]	anti-inflammatory effect, oral, 50 mg/kg (relative inhibition, ibuprofen = 1.0) [3]	acute toxicity, oral (lethal dose) [4]	mean percent inhibition (topical route) ([2]; 1% in polyethylene glycol 300)	mean percent inhibition (carrageenin edema) ([3]; 10 mg/kg)	mean percent inhibition (carrageenin edema) ([3]; 50 mg/kg)
CC(C)Cc1ccc(C(C)C(=O)OCC2CC2)cc1 (stereo not shown)	103 mg/kg	3.7	0.8	1.6	2000 mg/kg			
CC(C)Cc1ccc(C(C)C(=O)OCc2ccccc2F)cc1 (stereo not shown)	202 mg/kg	2.9	1.6	1.7				
CC(C)Cc1ccc(C(C)C(=O)OCc2cccc(F)c2)cc1 (stereo not shown)	634 mg/kg	0.9	0.8	1.7				
CC(C)Cc1ccc(C(C)C(=O)OCc2ccccc2)cc1 (stereo not shown)	118 mg/kg	3.1	0.7	0.9	> 2000 mg/kg			
CC(C)Cc1ccc(C(C)C(=O)OCc2cccnc2)cc1 (stereo not shown)	31.2 mg/kg	1.7	1.0	1.4	1000 to 2000 mg/kg			
CC(C)Cc1ccc(C(C)C(=O)OCC(F)(F)F)cc1 (stereo not shown) [Compound 9, 2-(p-isobutylphenyl)propionic acid-2,2,2-trifluoroethyl ester]	135 mg/kg	3.6	0.8	1.3	1000 to 2000 mg/kg			
CC(C)Cc1ccc(C(C)C(=O)OCCN2CCN(C)CC2)cc1 (stereo not shown)	31.6 mg/kg	2.5	1.0	1.1	1000 to 2000 mg/kg			
CC(C)Cc1ccc(C(C)C(=O)OCc2ccc(F)cc2)cc1 (stereo not shown)			1.1	1.2				
CC(C)Cc1ccc(C(C)C(=O)OCCN(C)C)cc1 (stereo not shown)	53.7 mg/kg	2.0	0.8	1.2	1000 to 2000 mg/kg			
CC(C)Cc1ccc(C(C)C(=O)OCC(O)CO)cc1 (stereo not shown) [Compound 11]	143 mg/kg		1.1	0.9	1000 to 2000 mg/kg			
CC(C)Cc1ccc(C(C)C(=O)OCCOCCO)cc1 (stereo not shown) [Compound 16]	151 mg/kg	2.3		0.9	> 2000 mg/kg			
CCOC(=O)COC(=O)C(C)c1ccc(CC(C)C)cc1 (stereo not shown) [Compound 19]	180 mg/kg	1.9	0.5	0.7	> 2000 mg/kg			
CC(C)Cc1ccc(C(C)C(=O)O)cc1 (stereo not shown) [ibuprofen, 2-(p-isobutylphenyl)propionic acid, reference compound]	45.8 mg/kg					23.8%	33.5%	37.4%
COc1ccc(COC(=O)C(C)c2ccc(CC(C)C)cc2)cc1 (stereo not shown)	220 mg/kg	2.3	0.8	1.4				
Cc1ccc(COC(=O)C(C)c2ccc(CC(C)C)cc2)cc1 (stereo not shown)	230 mg/kg	1.9	1.7	1.5				
CCCOC(=O)C(C)c1ccc(CC(C)C)cc1 (stereo not shown) [Compound 2, 2-(4-isobutylphenyl)propionic acid-n-propyl ester]	192 mg/kg	3.2	0.7	1.1	> 2000 mg/kg			
CC(C)Cc1ccc(C(C)C(=O)OCCCN(C)C)cc1 (stereo not shown)	29.9 mg/kg	2.2	0.7	1.1	500 to 1000 mg/kg			
CCN(CC)CCOC(=O)C(C)c1ccc(CC(C)C)cc1 (stereo not shown)	318 mg/kg	3.0	1.2	0.9	500 to 1000 mg/kg			
CCCCCCOC(=O)C(C)c1ccc(CC(C)C)cc1 (stereo not shown) [Compound 6]	215 mg/kg	3.5		1.2	> 2000 mg/kg			
CC(C)Cc1ccc(C(C)C(=O)OCCN2CCOCC2)cc1 (stereo not shown)	154 mg/kg	1.6	0.7	0.9	1000 to 2000 mg/kg			
CC(=O)OCOC(=O)C(C)c1ccc(CC(C)C)cc1 (stereo not shown) [Compound 17]			0.9	0.9				
CC(C)Cc1ccc(C(C)C(=O)OCc2ccccn2)cc1 (stereo not shown)	67.8 mg/kg	4.0	0.7	1.8	1000 to 2000 mg/kg			
CC(C)Cc1ccc(C(C)C(=O)OCc2ccc(Cl)cc2)cc1 (stereo not shown)	486 mg/kg	2.8	0.5	1.0	> 2000 mg/kg			
CC(C)Cc1ccc(C(C)C(=O)OCc2ccccc2Cl)cc1 (stereo not shown)	51.4 mg/kg	2.5	0.5	1.0	> 2000 mg/kg			
COCCOC(=O)C(C)c1ccc(CC(C)C)cc1 (stereo not shown) [Compound 14]	406 mg/kg	1.2	0.4	1.2	1000 to 2000 mg/kg			
CC(=O)OCCOC(=O)C(C)c1ccc(CC(C)C)cc1 (stereo not shown) [Compound 18]	308 mg/kg	2.2	0.7	1.1	> 2000 mg/kg			
COCOC(=O)C(C)c1ccc(CC(C)C)cc1 (stereo not shown) [Compound 12]	174 mg/kg	2.5	1.0	1.2	500 to 1000 mg/kg			
COC(=O)C(C)c1ccc(CC(C)C)cc1 (stereo not shown) [Compound 1]	109 mg/kg	3.5	0.8	1.4	> 2000 mg/kg			
CC(C)Cc1ccc(C(C)C(=O)OCc2c(Cl)cccc2Cl)cc1 (stereo not shown)	79.6 mg/kg	2.1	0.6	1.0	> 2000 mg/kg			
CC(C)Cc1ccc(C(C)C(=O)OCCO)cc1 (stereo not shown) [Compound 10]	155 mg/kg	1.9	0.5	1.0	> 2000 mg/kg			
